Experimental data: patent US6777412B2 (priority 1990, dated 2004)
Read-outs that look alike come from different tables or passages of the source. Marks after values point to notes of the source that are not given here.

Tests used:
Type in all cases: in vivo
Pyricularia oryzae = system: Pyricularia oryzae
Puccinia recondita = test: Foliar fungal disease test on plants: Puccinia recondita (Pr)
Protocol: (§1) The compounds were tested against a variety of foliar fungal diseases of plants. The technique employed was as follows.
(§2) The plants were grown in John Innes Potting Compost (No.1 or 2) in 4 cm diameter minipots. The test compounds were formulated either by bead milling with aqueous Dispersol T or as a solution in acetone or acetone/ethanol which was diluted to the required concentration immediately before use. For the foliage diseases, the formulations (100 ppm active ingredient except where otherwise indicated) were sprayed onto the foliage and applied to the roots of the plants in the soil. The sprays were applied to maximum retention and the root drenches to a final concentration equivalent to approximately 40 ppm a.i. in dry soil. Tween 20, to give a final concentration of 0.05%, was added when the sprays were applied to cereals.
(§3) For most of the tests the compound was applied to the soil (roots) and to the foliage (by spraying) one or two days before the plant was inoculated with the disease. An exception was the test on Erysiphe graminis in which the plants were inoculated 24 hours before treatment. Foliar pathogens were applied by spray as spore suspensions onto the leaves of test plants. After inoculation, the plants were put into an appropriate environment to allow infection to proceed and then incubated until the disease was ready for assessment. The period between inoculation and assessment varied from four to fourteen days according to the disease and environment.
(§4) The disease control vas recorded by the following grading:
(§5) 3=trace-5% of disease on untreated plants
(§6) 2=6-25% of disease on untreated plants
(§7) 1=26-59% of disease on untreated plants
(§8) 0=60-100% of disease on untreated plants

Plasmopara viticola = test: Foliar fungal disease test on plants: Plasmopara viticola (Pv)
Protocol: as §1, §2, §3, §4, §5, §6, §7, §8

Erysiphe graminis hordei = test: Foliar fungal disease test on plants: Erysiphe graminis hordei (Egh)
Protocol: as §1, §2, §3, §4, §5, §6, §7, §8
Egh Erysiphe graminis hordei

[1] = system: Phytophthora infestans lycopersici
Venturia inaequalis = test: Foliar fungal disease test on plants: Venturia inaequalis (Vi)
Protocol: as §1, §2, §3, §4, §5, §6, §7, §8

[2] = 100 ppm active ingredient foliar spray plus root drench (approx. 40 ppm a.i. in dry soil), one or two days before inoculation
[3] = 100 ppm active ingredient foliar spray plus root drench (approx. 40 ppm a.i. in dry soil), plants inoculated 24 hours before treatment

With CO/C=C(/C(=O)OC)c1ccccc1Oc1cc(Sc2ccccc2)ncn1 [1 of Table I] the “disease control grading, Po (Pyricularia oryzae)” value (from here on “disease control grading, Po”) (Pyricularia oryzae; [2]) was 4 (4=no disease), the “disease control grading, Pr (Puccinia recondita)” value (“disease control grading, Pr” below) (Puccinia recondita; [2]) was 4 (4=no disease) and the “disease control grading, Pv (Plasmopara viticola)” value (“disease control grading, Pv” for short) (Plasmopara viticola; [2]) was 4 (4=no disease). The “disease control grading, Egh (Erysiphe graminis hordei)” value (from here on “disease control grading, Egh”) (Erysiphe graminis hordei; [3]) was 4 (4=no disease), the “disease control grading, Pil (Phytophthora infestans lycopersici)” value (shortened to “disease control grading, Pil”) [1, 2] was 4 (4=no disease) and the “disease control grading, Vi (Venturia inaegualis)” value (from here on “disease control grading, Vi”) (Venturia inaequalis; [2]) was 4 (4=no disease).
CO/C=C(/C(=O)OC)c1ccccc1Oc1cc([S+]([O-])c2ccccc2)ncn1 (stereo not shown) [2 of Table I] was tested, and the “disease control grading, Po” value (Pyricularia oryzae; 10 ppm foliar application only) was 0^a (0=60-100% of disease on untreated plants), the “disease control grading, Pr” value (Puccinia recondita; 10 ppm foliar application only) was 0^a (0=60-100% of disease on untreated plants) and the “disease control grading, Pv” value (Plasmopara viticola; 10 ppm foliar application only) was 4^a (4=no disease). For the same compound, the “disease control grading, Egh” value (Erysiphe graminis hordei; 10 ppm foliar application only) was 0^a (0=60-100% of disease on untreated plants), the “disease control grading, Pil” value ([1]; 10 ppm foliar application only) was 0^a (0=60-100% of disease on untreated plants) and the “disease control grading, Vi” value (Venturia inaequalis; 10 ppm foliar application only) was 0^a (0=60-100% of disease on untreated plants).
In the case of CO/C=C(/C(=O)OC)c1ccccc1Oc1cc(S(=O)(=O)c2ccccc2)ncn1 [3 of Table I], the “disease control grading, Po” value (Pyricularia oryzae; [2]) is reported as 2 (2=6-25% of disease on untreated plants), the “disease control grading, Pr” value (Puccinia recondita; [2]) is reported as 3 (3=trace-5% of disease on untreated plants) and the “disease control grading, Pv” value (Plasmopara viticola; [2]) is reported as 4 (4=no disease). The “disease control grading, Egh” value (Erysiphe graminis hordei; [3]) was 0 (0=60-100% of disease on untreated plants), the “disease control grading, Pil” value [1, 2] was 0 (0=60-100% of disease on untreated plants) and the “disease control grading, Vi” value (Venturia inaequalis; [2]) was 4 (4=no disease).
With CO/C=C(/C(=O)OC)c1ccccc1Oc1cc(OCCc2ccccc2)ncn1 [96 of Table I] the “disease control grading, Po” value (Pyricularia oryzae; [2]) was 3 (3=trace-5% of disease on untreated plants), the “disease control grading, Pr” value (Puccinia recondita; [2]) was 4 (4=no disease) and the “disease control grading, Pv” value (Plasmopara viticola; [2]) was 4 (4=no disease). The “disease control grading, Egh” value (Erysiphe graminis hordei; [3]) was 4 (4=no disease) and the “disease control grading, Pil” value [1, 2] was 4 (4=no disease).
CO/C=C(/C(=O)OC)c1ccccc1Oc1cc(Sc2ccccc2C#N)ncn1 [134 of Table I] was tested, and the “disease control grading, Po” value (Pyricularia oryzae; [2]) was 2 (2=6-25% of disease on untreated plants), the “disease control grading, Pr” value (Puccinia recondita; [2]) was 4 (4=no disease) and the “disease control grading, Pv” value (Plasmopara viticola; [2]) was 4 (4=no disease). For the same compound, the “disease control grading, Egh” value (Erysiphe graminis hordei; [3]) was 4 (4=no disease).
With CO/C=C(/C(=O)OC)c1ccccc1Oc1cc([S+]([O-])c2ccccn2)ncn1 (stereo not shown) [355 of Table I] the “disease control grading, Pr” value (Puccinia recondita; [2]) was 0 (0=60-100% of disease on untreated plants), the “disease control grading, Pv” value (Plasmopara viticola; [2]) was 0 (0=60-100% of disease on untreated plants) and the “disease control grading, Egh” value (Erysiphe graminis hordei; [3]) was 4 (4=no disease). For the same compound, the “disease control grading, Pil” value [1, 2] was 0 (0=60-100% of disease on untreated plants) and the “disease control grading, Vi” value (Venturia inaequalis; [2]) was 4 (4=no disease).
CO/C=C(/C(=O)OC)c1ccccc1Oc1cc(OCCc2ccccc2C#N)ncn1 [357 of Table I] was tested, and the “disease control grading, Po” value (Pyricularia oryzae; [2]) was 4 (4=no disease), the “disease control grading, Pr” value (Puccinia recondita; [2]) was 4 (4=no disease) and the “disease control grading, Pv” value (Plasmopara viticola; [2]) was 4 (4=no disease). The “disease control grading, Egh” value (Erysiphe graminis hordei; [3]) was 4 (4=no disease), the “disease control grading, Pil” value [1, 2] was 4 (4=no disease) and the “disease control grading, Vi” value (Venturia inaequalis; [2]) was 4 (4=no disease).
CO/C=C(/C(=O)OC)c1ccccc1Oc1cc(OCCc2ccccc2[N+](=O)[O-])ncn1 [358 of Table I] was tested, and the “disease control grading, Po” value (Pyricularia oryzae; [2]) was 4 (4=no disease), the “disease control grading, Pr” value (Puccinia recondita; [2]) was 4 (4=no disease) and the “disease control grading, Pv” value (Plasmopara viticola; [2]) was 4 (4=no disease). The “disease control grading, Egh” value (Erysiphe graminis hordei; [3]) was 4 (4=no disease), the “disease control grading, Pil” value [1, 2] was 4 (4=no disease) and the “disease control grading, Vi” value (Venturia inaequalis; [2]) was 4 (4=no disease).
For CO/C=C(/C(=O)OC)c1ccccc1Oc1cc(OCCCc2ccccc2)ncn1 [360 of Table I], the “disease control grading, Po” value (Pyricularia oryzae; [2]) was 4 (4=no disease), the “disease control grading, Pr” value (Puccinia recondita; [2]) was 4 (4=no disease) and the “disease control grading, Pv” value (Plasmopara viticola; [2]) was 4 (4=no disease). For the same compound, the “disease control grading, Egh” value (Erysiphe graminis hordei; [3]) was 4 (4=no disease), the “disease control grading, Pil” value [1, 2] was 4 (4=no disease) and the “disease control grading, Vi” value (Venturia inaequalis; [2]) was 4 (4=no disease).
For CO/C=C(/C(=O)OC)c1ccccc1Oc1cc(OCCCc2ccccc2[N+](=O)[O-])ncn1 [361 of Table I], the “disease control grading, Po” value (Pyricularia oryzae; [2]) was 4 (4=no disease), the “disease control grading, Pr” value (Puccinia recondita; [2]) was 4 (4=no disease) and the “disease control grading, Pv” value (Plasmopara viticola; [2]) was 4 (4=no disease). The “disease control grading, Egh” value (Erysiphe graminis hordei; [3]) was 4 (4=no disease), the “disease control grading, Pil” value [1, 2] was 4 (4=no disease) and the “disease control grading, Vi” value (Venturia inaequalis; [2]) was 4 (4=no disease).
CO/C=C(/C(=O)OC)c1ccccc1Oc1cc(OCCc2ccccc2C(F)(F)F)ncn1 [363 of Table I] was tested, and the “disease control grading, Po” value (Pyricularia oryzae; [2]) was 4 (4=no disease), the “disease control grading, Pr” value (Puccinia recondita; [2]) was 4 (4=no disease) and the “disease control grading, Pv” value (Plasmopara viticola; [2]) was 4 (4=no disease). The “disease control grading, Egh” value (Erysiphe graminis hordei; [3]) was 4 (4=no disease), the “disease control grading, Pil” value [1, 2] was 4 (4=no disease) and the “disease control grading, Vi” value (Venturia inaequalis; [2]) was 4 (4=no disease).
CO/C=C(/C(=O)OC)c1ccccc1Oc1cc(OCCc2ccccc2C)ncn1 [364 of Table I] was tested, and the “disease control grading, Po” value (Pyricularia oryzae; [2]) was 4 (4=no disease), the “disease control grading, Pr” value (Puccinia recondita; [2]) was 4 (4=no disease) and the “disease control grading, Pv” value (Plasmopara viticola; [2]) was 4 (4=no disease). For the same compound, the “disease control grading, Egh” value (Erysiphe graminis hordei; [3]) was 4 (4=no disease), the “disease control grading, Pil” value [1, 2] was 4 (4=no disease) and the “disease control grading, Vi” value (Venturia inaequalis; [2]) was 4 (4=no disease).
In the case of CO/C=C(/C(=O)OC)c1ccccc1Oc1cc(Nc2ccccc2O)ncn1 [379 of Table I], the “disease control grading, Po” value (Pyricularia oryzae; [2]) is reported as 0 (0=60-100% of disease on untreated plants), the “disease control grading, Pr” value (Puccinia recondita; [2]) is reported as 3 (3=trace-5% of disease on untreated plants) and the “disease control grading, Pv” value (Plasmopara viticola; [2]) is reported as 4 (4=no disease). For the same compound, the “disease control grading, Egh” value (Erysiphe graminis hordei; [3]) was 0 (0=60-100% of disease on untreated plants) and the “disease control grading, Pil” value [1, 2] was 0 (0=60-100% of disease on untreated plants).
